This note sets out measurements from patent US20230066011A1, “PYRROLOPYRIMIDINE DERIVATIVE, AND PHARMACEUTICAL COMPOSITION FOR PREVENTING OR TREATING PROTEIN KINASE-RELATED DISEASE COMPRISING SAME AS ACTIVE INGREDIENT” (VORONOI CO., LTD., priority 2019, published 2023).

One assay has as its target T1, human GST-DYRK1A (Homo sapiens, UniProt Q13627).
T1 construct: purified human GST-DYRK1A (full length, Thermo Scientifics) enzyme; purchased Thermo Scientifics
In words: GST-DYRK1A enzyme inhibition, ADP-Glo kinase assay. Format: biochemical. As to conditions: ATP 10 μM, GST-DYRK1A full length, read-out: DYRK1 IC50. The gist of the method: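 Full-length enzyme (10 ng) was incubated with 10 μM ATP and a specific substrate for 1 h at 25 °C in 40 mM Tris-HCl pH 7.4, 20 mM MgCl2, 0.5 mg/mL BSA, 50 μM DTT. Luminescence was read against a solvent control, and IC50 values were derived from 3 data sets.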
(In general: ADP-Glo turns the ADP formed in a reaction into a luminescent signal.)

For a further assay, the target named is LRRK2 (G2019S) (Homo sapiens, UniProt Q5S007, G2019S). In words: LRRK2 G2019S enzyme inhibition, ADP-Glo kinase assay. Format: biochemical. More on the design: purchased SignalChem L10-12GG. As to conditions: ATP 25 μM. The gist of the method: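 IC50 derived from luminescent ADP-Glo readout against untreated solvent control, twelve final compound concentrations from 50 μM downward. Reaction: recombinant human LRRK2 G2019S enzyme, 25 μM ATP, substrate, pH 7.4 Tris buffer with MgCl2/BSA/DTT, 25° C. for 2 hours.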

The target in a further assay is T2, human GST-CLK1 (Homo sapiens, UniProt P49759).
T2 construct: purified human GST-CLK1 (129-end, SignalChem) enzyme; purchased SignalChem
The assay can be described thus: GST-CLK1 enzyme inhibition, ADP-Glo kinase assay. To be noted: ATP 10 μM, GST-CLK1 129-end. Format: biochemical. The gist of the method:
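ADP-Glo luminescence read-out, relative to untreated solvent control, gave IC50 (nM) from triplicate data sets. Reactions ran an hour at 25° C with 3 ng GST-CLK1 (residues 129-end), 10 μM ATP and specific substrate in Tris-HCl pH 7.4 buffer with MgCl2, BSA and DTT.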

The next assay relates to IL-6. The assay can be described thus: Inhibition of LPS-induced IL-6 secretion of THP-1 monocytes (ELISA). Format: cell-based, human. As to conditions: Homo sapiens, THP-1; compound 0.5 μM, LPS 500 ng/mL, 24 hours; read-out: THP1/IL6 (% inhib). The gist of the method: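 THP-1 monocytes grown 16 h at 37 °C, pretreated 1 h with compound at final 0.5 μM, then stimulated with LPS at final 500 ng/mL for 24 h. IL-6 and TNF-α in culture supernatant measured by ELISA (OD 450 nm).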
A general note: In an ELISA, binding on a coated surface is turned into a signal by an enzyme label.

Chain of LRRK2 (G2019S) (Q5S007 970-2527 G2019S limits assumed): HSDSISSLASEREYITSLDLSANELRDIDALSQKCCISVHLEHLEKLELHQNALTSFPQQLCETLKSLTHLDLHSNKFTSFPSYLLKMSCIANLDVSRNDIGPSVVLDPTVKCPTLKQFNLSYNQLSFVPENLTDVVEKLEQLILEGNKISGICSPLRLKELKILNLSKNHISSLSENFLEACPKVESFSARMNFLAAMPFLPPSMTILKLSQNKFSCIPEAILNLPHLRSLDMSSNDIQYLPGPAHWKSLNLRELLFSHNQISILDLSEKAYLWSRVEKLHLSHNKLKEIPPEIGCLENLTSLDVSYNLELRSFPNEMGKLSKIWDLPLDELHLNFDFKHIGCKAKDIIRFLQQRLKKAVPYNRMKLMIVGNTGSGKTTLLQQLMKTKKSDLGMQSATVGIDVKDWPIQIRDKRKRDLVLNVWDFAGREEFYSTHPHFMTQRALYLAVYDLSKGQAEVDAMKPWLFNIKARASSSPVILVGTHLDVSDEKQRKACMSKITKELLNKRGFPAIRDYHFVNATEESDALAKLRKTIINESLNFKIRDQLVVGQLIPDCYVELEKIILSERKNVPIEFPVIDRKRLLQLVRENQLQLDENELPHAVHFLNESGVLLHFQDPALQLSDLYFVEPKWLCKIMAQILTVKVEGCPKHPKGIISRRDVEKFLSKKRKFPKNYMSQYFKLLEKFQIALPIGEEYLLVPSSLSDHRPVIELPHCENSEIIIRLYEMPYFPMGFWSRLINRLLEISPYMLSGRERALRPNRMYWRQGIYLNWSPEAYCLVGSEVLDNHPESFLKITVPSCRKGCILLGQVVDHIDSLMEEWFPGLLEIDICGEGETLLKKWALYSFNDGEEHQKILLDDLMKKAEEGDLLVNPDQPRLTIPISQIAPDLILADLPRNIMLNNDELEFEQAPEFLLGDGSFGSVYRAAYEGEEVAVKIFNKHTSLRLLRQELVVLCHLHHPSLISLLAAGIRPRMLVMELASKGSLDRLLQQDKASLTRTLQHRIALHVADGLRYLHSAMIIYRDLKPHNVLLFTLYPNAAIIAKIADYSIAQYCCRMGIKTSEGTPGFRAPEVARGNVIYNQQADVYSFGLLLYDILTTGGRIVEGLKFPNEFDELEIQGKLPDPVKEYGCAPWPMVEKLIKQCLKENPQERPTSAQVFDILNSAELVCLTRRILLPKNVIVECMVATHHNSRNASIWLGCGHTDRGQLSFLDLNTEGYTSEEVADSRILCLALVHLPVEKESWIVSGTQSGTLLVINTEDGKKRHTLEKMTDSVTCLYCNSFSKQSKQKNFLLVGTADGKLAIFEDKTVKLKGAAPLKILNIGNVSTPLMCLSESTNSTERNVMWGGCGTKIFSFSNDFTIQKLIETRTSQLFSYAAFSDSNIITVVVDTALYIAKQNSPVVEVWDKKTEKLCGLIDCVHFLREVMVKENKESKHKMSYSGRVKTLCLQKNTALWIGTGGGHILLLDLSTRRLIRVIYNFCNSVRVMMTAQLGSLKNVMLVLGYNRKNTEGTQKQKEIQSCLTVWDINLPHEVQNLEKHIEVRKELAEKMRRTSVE
T2 sequence (P49759 129-484 limits assumed): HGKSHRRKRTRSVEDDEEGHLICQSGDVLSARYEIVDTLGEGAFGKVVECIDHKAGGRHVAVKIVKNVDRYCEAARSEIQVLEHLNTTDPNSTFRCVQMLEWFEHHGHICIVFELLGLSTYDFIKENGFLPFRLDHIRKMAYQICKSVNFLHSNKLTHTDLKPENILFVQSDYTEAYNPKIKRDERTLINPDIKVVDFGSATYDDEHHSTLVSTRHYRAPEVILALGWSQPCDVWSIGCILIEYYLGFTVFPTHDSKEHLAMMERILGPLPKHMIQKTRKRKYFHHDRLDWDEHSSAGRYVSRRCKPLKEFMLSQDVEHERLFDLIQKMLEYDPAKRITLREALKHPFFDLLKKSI

Usually IC50 stands for the concentration at which inhibition is half-maximal. With `CNc1nc(Nc2ccc(S(=O)(=O)N3CCC(N4CCOCC4)CC3)c3c2OCCO3)nc2[nH]cc(C(F)(F)F)c12` [Example 219, N^4-methyl-N^2-(8-((4-morpholinopiperidin-1-yl)sulfonyl)-2,3-dihydrobenzo[b][1,4]dioxin-5-yl)-5-(trifluoromethyl)-7H-pyrrolo[2,3-d]pyrimidine-2,4-diamine], the IC50 at human GST-DYRK1A, against LRRK2 (G2019S) and on human GST-CLK1 was less than 100 nM throughout. In addition, the inhibition at 0.5 µM in the assay on IL-6 is 10.9%.
Regarding `O=C(c1ccc(Nc2nc(NCC3CC3)c3c(C(F)(F)F)c[nH]c3n2)c2c1CCO2)N1CCC(N2CCOCC2)CC1` [Example 461, (7-((4-((cyclo-propylmeth-yl)amino)-5-(trifluoromethyl)-7H-pyrrolo[2,3-d]pyrimidin-2-yl)amino)-2,3-dihydrobenzo-furan-4-yl)(4-morpho-linopiperidin-1-yl)methanone], the IC50 at human GST-DYRK1A, against LRRK2 (G2019S) and against human GST-CLK1 was less than 100 nM throughout. In the assay on IL-6, the inhibition at 0.5 µM turned out to be 25.7%.
